Reference: PubChem BioAssay AID330 (DTP/NCI, 2004)
Values joined by “and” are separate entries in the source; they are usually repeats but may differ in a detail not shown here. Equal values may be shown once. Inconclusive results and toxic doses are left out. Peptide text beside a SMILES is read from it. * marks the point of attachment. Trt = c1ccc(C(c2ccccc2)(c2ccccc2)*)cc1; Cbz = O=C(OCc1ccccc1)*; OtBu = CC(C)(C)O*

Test system: P388 leukemia ip, CD2F1 mice, survival T/C
Assay: NCI In Vivo Anticancer Drug Screen. Data for tumor model P388 Leukemia (intraperitoneal) in CD2F1 (CDF1) mice
Details: endpoint: median survival time, higher = longer survival
Procedure, shortened: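 Mice carrying the transplanted tumor received test compound or vehicle. Survival was recorded in each group, and the value is the treated-group measurement divided by that of the vehicle-treated control group.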

[1] = dose: 50.0 mg/kg/injection, schedule: Q01DX009 (ip), vehicle: Klucel (hydroxypropylcellulose) (HPC)
[2] = dose: 100.0 mg/kg/injection, schedule: Q01DX009 (ip), vehicle: Klucel (hydroxypropylcellulose) (HPC)
[3] = dose: 200.0 mg/kg/injection, schedule: Q01DX009 (ip), vehicle: Klucel (hydroxypropylcellulose) (HPC)
[4] = dose: 50.0 mg/kg/injection, schedule: Q01DX005 (ip), vehicle: saline
[5] = dose: 100.0 mg/kg/injection, schedule: Q01DX005 (ip), vehicle: saline
[6] = dose: 200.0 mg/kg/injection, schedule: Q01DX005 (ip), vehicle: saline
[7] = dose: 60.0 mg/kg/injection, schedule: Q01DX005 (ip), vehicle: Klucel (hydroxypropylcellulose) (HPC)
[8] = dose: 25.0 mg/kg/injection, schedule: Q01DX009 (ip), vehicle: saline with Tween-80
[9] = dose: 50.0 mg/kg/injection, schedule: Q01DX009 (ip), vehicle: saline with Tween-80
[10] = dose: 50.0 mg/kg/injection, schedule: Q01DX005 (ip), vehicle: Klucel (hydroxypropylcellulose) (HPC)
[11] = dose: 100.0 mg/kg/injection, schedule: Q01DX005 (ip), vehicle: Klucel (hydroxypropylcellulose) (HPC)
[12] = dose: 200.0 mg/kg/injection, schedule: Q01DX005 (ip), vehicle: Klucel (hydroxypropylcellulose) (HPC)

COc1ccc(CCNC(=O)c2c3nc4c(C(=O)NCCc5ccc(OC)c(OC)c5)ccc(C)c4oc-3c(C)c(=O)c2N)cc1OC
T/C (dose: 100.0 mg/kg/injection, schedule: Q04DX003 (ip), vehicle: saline + alcohol): 104 % of control
T/C (dose: 200.0 mg/kg/injection, schedule: Q04DX003 (ip), vehicle: saline + alcohol): 102 % of control
T/C (dose: 400.0 mg/kg/injection, schedule: Q04DX003 (ip), vehicle: saline + alcohol): 105 % of control

O=C(O)C1C2C=CC(O2)C1C(=O)Nn1cccc1 (stereo unspecified)
T/C [1]: 99 % of control
T/C [2]: 94 % of control
T/C [3]: 95 % of control

CC1(CO)COC(c2ccc(Cl)cc2)N1 (stereo unspecified)
T/C (dose: 50.0 mg/kg/injection, schedule: Q01DX005 (ip), vehicle: acetone): 106 % of control
T/C (dose: 100.0 mg/kg/injection, schedule: Q01DX005 (ip), vehicle: acetone): 106 % of control
T/C (dose: 200.0 mg/kg/injection, schedule: Q01DX005 (ip), vehicle: acetone): 112 % of control

CCSc1nc2ccc(NC(=O)CCC(=O)O)cc2s1
T/C [1]: 103 % of control
T/C [2]: 102 % of control
T/C [3]: 101 % of control

Cc1cc(NS(=O)(=O)c2ccc(N)cc2)no1.[Ag]
T/C (dose: 12.5 mg/kg/injection, schedule: Q01DX009 (ip), vehicle: Klucel (hydroxypropylcellulose) (HPC)): 89 % of control
T/C (dose: 25.0 mg/kg/injection, schedule: Q01DX009 (ip), vehicle: Klucel (hydroxypropylcellulose) (HPC)): 101 % of control
T/C [1]: 106 % of control

CS/C(N)=N/NC(=O)CCC(=O)Nc1cc(Cl)c(Cl)cc1Cl
T/C (dose: 100.0 mg/kg/injection, schedule: Q04DX002 (ip), vehicle: saline with Tween-80): 102 % of control
T/C (dose: 200.0 mg/kg/injection, schedule: Q04DX002 (ip), vehicle: saline with Tween-80): 100 % of control
T/C (dose: 400.0 mg/kg/injection, schedule: Q04DX002 (ip), vehicle: saline with Tween-80): 96 % of control

CS(=O)CC(=O)c1ccccn1 (stereo unspecified)
T/C [4]: 106 % of control
T/C [5]: 100 % of control
T/C [6]: 99 % of control

c1ccc(N=C2N=c3ccccc3=C2c2c(Nc3ccccc3)[nH]c3ccccc23)cc1
T/C (dose: 50.0 mg/kg/injection, schedule: Q01DX005 (ip), vehicle: saline with Tween-80): 89 % of control
T/C (dose: 100.0 mg/kg/injection, schedule: Q01DX005 (ip), vehicle: saline with Tween-80): 90 % of control
T/C (dose: 200.0 mg/kg/injection, schedule: Q01DX005 (ip), vehicle: saline with Tween-80): 92 % of control

NC(=N\N=C\C(O)C(O)C(O)C(O)C(=O)O)/C(N)=N/N=C/C(O)C(O)C(O)C(O)C(=O)O (stereo unspecified)
T/C [4]: 101 % of control
T/C [5]: 104 % of control
T/C [6]: 101 % of control

Cc1ccnc(NC(=O)Nc2cc(Cl)ccc2Cl)c1
T/C [1]: 100 % of control
T/C [2]: 87 % of control

COc1ccncc1CCc1cnccc1OC
T/C (dose: 100.0 mg/kg/injection, schedule: Q04DX003 (ip), vehicle: saline): 99 % of control
T/C (dose: 200.0 mg/kg/injection, schedule: Q04DX003 (ip), vehicle: saline): 93 % of control
T/C (dose: 400.0 mg/kg/injection, schedule: Q04DX003 (ip), vehicle: saline): 90 % of control

COC(=O)[CH2][Ge]([c]1ccccc1)[c]1ccccc1.COC(=O)[CH2][Ge]([c]1ccccc1)[c]1ccccc1
T/C (dose: 15.0 mg/kg/injection, schedule: Q01DX005 (ip), vehicle: Klucel (hydroxypropylcellulose) (HPC)): 97 % of control
T/C (dose: 30.0 mg/kg/injection, schedule: Q01DX005 (ip), vehicle: Klucel (hydroxypropylcellulose) (HPC)): 89 % of control
T/C [7]: 89 % of control

CCCCCCCCSc1nc(Nc2cc(C(C)(C)C)c(O)c(C(C)(C)C)c2)nc(SCCCCCCCC)n1
T/C (dose: 12.5 mg/kg/injection, schedule: Q01DX009 (ip), vehicle: saline with Tween-80): 105 % of control
T/C [8]: 104 % of control
T/C [9]: 99 % of control and 92 % of control
T/C (dose: 200.0 mg/kg/injection, schedule: Q01DX009 (ip), vehicle: saline with Tween-80): 100 % of control

O=C(O)c1cccc(Cl)c1 (tested in a mixture with another compound)
T/C (dose: 100.0 mg/kg/injection, schedule: Q01DX001 (ip), vehicle: saline with Tween-80): 94 % of control
T/C (dose: 200.0 mg/kg/injection, schedule: Q01DX001 (ip), vehicle: saline with Tween-80): 99 % of control
T/C (dose: 400.0 mg/kg/injection, schedule: Q01DX001 (ip), vehicle: saline with Tween-80): 95 % of control

CC(C)CC(NC(=O)C(CSC(c1ccccc1)(c1ccccc1)c1ccccc1)NC(=O)OCc1ccccc1)C(=O)NC(C(=O)OC(C)(C)C)C(C)C (stereo not drawn) (Cbz-Cys(Trt)-Leu-Val-OtBu; configuration not given here)
T/C [7]: 96 % of control
T/C (dose: 120.0 mg/kg/injection, schedule: Q01DX005 (ip), vehicle: Klucel (hydroxypropylcellulose) (HPC)): 100 % of control
T/C (dose: 240.0 mg/kg/injection, schedule: Q01DX005 (ip), vehicle: Klucel (hydroxypropylcellulose) (HPC)): 107 % of control

COc1ccc(-c2cc(O)c3c(c2N)C(=O)c2c(O)ccc(N)c2C3=O)cc1
T/C [10]: 86 % of control
T/C [11]: 90 % of control
T/C [12]: 90 % of control

Cn1cccc([N+](=O)[O-])c1=O
T/C (dose: 5.0 mg/kg/injection, schedule: Q01DX009 (ip), vehicle: saline): 105 % of control and 109 % of control
T/C (dose: 10.0 mg/kg/injection, schedule: Q01DX009 (ip), vehicle: saline): 101 % of control and 108 % of control
T/C (dose: 12.5 mg/kg/injection, schedule: Q01DX009 (ip), vehicle: saline): 113 % of control and 114 % of control
T/C (dose: 20.0 mg/kg/injection, schedule: Q01DX009 (ip), vehicle: saline): 102 % of control and 110 % of control
T/C (dose: 25.0 mg/kg/injection, schedule: Q01DX009 (ip), vehicle: saline): 100 % of control and 107 % of control
T/C (dose: 40.0 mg/kg/injection, schedule: Q01DX009 (ip), vehicle: Klucel (hydroxypropylcellulose) (HPC)): 100 % of control
T/C (dose: 40.0 mg/kg/injection, schedule: Q01DX009 (ip), vehicle: saline): 105 % of control
T/C (dose: 60.0 mg/kg/injection, schedule: Q01DX009 (ip), vehicle: Klucel (hydroxypropylcellulose) (HPC)): 104 % of control

Nc1ccn([C@@H](C=O)C[C@@H](C=O)CO)c(=O)n1
T/C (dose: 25.0 mg/kg/injection, schedule: Q01DX005 (ip), vehicle: saline): 112 % of control
T/C [6]: 150 % of control
T/C (dose: 400.0 mg/kg/injection, schedule: Q01DX005 (ip), vehicle: saline): 166 % of control

Clc1nnc(-c2ccccc2)c(-c2ccccc2)n1
T/C [8]: 100 % of control
T/C [9]: 100 % of control
T/C (dose: 100.0 mg/kg/injection, schedule: Q01DX009 (ip), vehicle: saline with Tween-80): 100 % of control

COc1cccc2c1C(=O)c1c(O)c3c(c(O)c1C2=O)C[C@@](O)(/C(C)=N/NC(N)=S)C[C@@H]3OC1CC(N)C(O)C(C)O1 (stereo partly specified)
T/C (dose: 3.13 mg/kg/injection, schedule: Q04DX003 (ip), vehicle: water): 108 % of control
T/C (dose: 6.25 mg/kg/injection, schedule: Q04DX003 (ip), vehicle: water): 109 % of control
T/C (dose: 12.5 mg/kg/injection, schedule: Q04DX003 (ip), vehicle: water): 112 % of control and 117 % of control
T/C (dose: 25.0 mg/kg/injection, schedule: Q04DX003 (ip), vehicle: water): 117 % of control and 123 % of control
T/C (dose: 50.0 mg/kg/injection, schedule: Q04DX003 (ip), vehicle: water): 117 % of control and 122 % of control
T/C (dose: 200.0 mg/kg/injection, schedule: Q04DX003 (ip), vehicle: water): 155 % of control

CP(C)(=S)[S][Sn]([CH3])([CH3])[S]P(C)(C)=S
T/C (dose: 6.25 mg/kg/injection, schedule: Q01DX005 (ip), vehicle: Klucel (hydroxypropylcellulose) (HPC)): 109 % of control and 113 % of control
T/C (dose: 12.5 mg/kg/injection, schedule: Q01DX005 (ip), vehicle: Klucel (hydroxypropylcellulose) (HPC)): 108 % of control and 115 % of control and 117 % of control
T/C (dose: 25.0 mg/kg/injection, schedule: Q01DX005 (ip), vehicle: Klucel (hydroxypropylcellulose) (HPC)): 105 % of control and 106 % of control and 122 % of control

CCC(c1ccc(OC)cc1)c1cc2c(cc1OC)OCO2 (stereo unspecified)
T/C [10]: 97 % of control
T/C [11]: 106 % of control
T/C [12]: 113 % of control

CC1=C(C(=O)CC(=O)C(=O)Nc2ccc(Cl)cc2Cl)Sc2ccccc2N1
T/C (dose: 60.0 mg/kg/injection, schedule: Q01DX005 (ip), vehicle: saline with Tween-80): 100 % of control
T/C (dose: 120.0 mg/kg/injection, schedule: Q01DX005 (ip), vehicle: saline with Tween-80): 100 % of control
